The values that follow come from publication PMC8803428, “Pharmacokinetics of Ginsenoside Rb1, Rg3, Rk1, Rg5, F2, and Compound K from Red Ginseng Extract in Healthy Korean Volunteers” (Evidence-based Complementary and Alternative Medicine : eCAM, 2022).

On the set-up of data set [1]: method as in earlier work. To be noted: after oral Korean Red ginseng extract, ref 25 (Kim et al.); cited from earlier work.
Data set [2] is described as follows: Pharmacokinetics of ginsenosides in plasma after a single oral dose of RG or BRG capsules in healthy Korean men (LC-MS/MS). Format: in vivo, human. The conditions noted are these: for half-life: T 1/2; for Tmax: T max. From the text: This study was designed as a randomized, open-label, single-dose, crossover study with washout every 1 week to evaluate the pharmacokinetics and safety of ginsenosides. Subjects were randomly assigned to either the RG or BRG group during the first period of the study (Figure 2). After 1 week of the washout period, other products that were not received in the first period were provided. All enrolled subjects were hospitalized at Bestian Clinical Trial Center on the day before taking RG or BRG. Subjects were provided regular meals, and additional food intake was restricted after the meal. The next day, the subjects who had maintained the fasting state for 10 h took the capsules corresponding to 5 g of RG and BRG orally. Water was restricted for 1 h before and after intake, and food intake was restricted for 4 h after administration. After 4 h, all subjects received a standardized meal. In addition, lying down or sleeping was prohibited for 8 h after oral administration. Blood samples (5 mL) were collected before dosing and at each time point (0, 0.5, 1, 2, 4, 6, 8, 10, 12, and 24 h) after dosing. All blood samples were collected in heparin-treated tubes. The blood samples were promptly centrifuged at 3,000 rpm for 10 min at 4°C, and the plasma samples obtained were stored in a deep freezer at −70 ± 10°C until assay.
All analyses were performed using an Agilent 1200 series HPLC system (Agilent) with a Luna Phenyl-Hexyl column (2.0 × 150 mm, 5 μm; Phenomenex, CA, USA). The mobile phase comprised water (solvent A) and acetonitrile (solvent B) containing 0.1% formic acid. The flow rate of the mobile phase was 0.25–0.35 mL/min. The initial condition of 70% solvent A was set to 5% solvent A over 15 min. The content of ginsenosides in human plasma was measured using an API 5500 mass spectrometer (AB Sciex, Foster City, CA, USA) capable of multiple reaction monitoring (MRM). The parent-daughter ion pairs monitored were 845.5 ⟶ 799.6 for Rg1, 1153.6 ⟶ 1107.5 for Rb1, 829.4 ⟶ 783.5 for Rg3, and F2, 811.4 ⟶ 161.0 for Rg5 and Rk1, 667.4 ⟶ 161.0 for CK, and 825.4 ⟶ 779.3 for digoxin as an IS in the negative ion mode. Nitrogen gas was used in the nebulizer and the collision cell. The ion spray voltage was set to 5500 V.
Standard plasma samples were prepared such that each ginsenoside was in the concentration range of 0.5–100 ng/mL; 10 μL of a standard mixture of six kinds of ginsenosides (Rg1, Rb1, Rg5 + Rk1, F2, and CK) was added to 90 μL of blank human plasma. Rg3 was prepared in the concentration range of 0.2–40 ng/mL. Standard plasma samples (100 μL) were added to 200 μL of methanol containing 50 ng/mL digoxin, an IS. These were mixed for 1 min and then centrifuged at 12,000 rpm for 5 min at 4°C. Then, 100 μL of the supernatant was transferred to an LC vial, and 10 μL was injected into the LC-MS/MS system. Plasma samples stored at −70°C were thawed at room temperature. Samples for LC-MS/MS analysis were pretreated in the same manner as standard plasma samples.
Plasma concentrations of seven ginsenosides were calculated from calibration curves by calculating the ratio of the peak area of the test substance to the peak area of the IS. The following pharmacokinetic parameters were measured using Phoenix WinNonlin 6.3 (Pharsight Co, CA, USA): time to reach maximum observed plasma drug concentration (Tmax), maximum observed plasma drug concentration (Cmax), area under the plasma drug concentration-time curve from 0 h to the final measured time (AUC(0–t)), area under the plasma drug concentration–time curve from 0 h to infinity (AUC(0–∞)), and terminal elimination half-life (t1/2).

Data set [3] in a line: Stability of the ginsenosides in human plasma (QC samples, LC-MS/MS method validation). The conditions noted are these: human; for Short-term stability, concentration found: 19 h; for Autosampler stability, concentration found: 34 h; for Long-term stability, concentration found: 50 days. The class given is in vitro ADME. As for the experimental part: The LC-MS/MS method was validated to determine selectivity, lower limits of quantification (LLOQ), accuracy, precision, recovery, matrix effect, and stability, according to the guideline for validating the bioanalytical method. The selectivity of the method was evaluated by comparison of blank plasma from six different men to the corresponding spiked plasma sample at the level of LLOQ to investigate the potential interferences at the LC chromatographic conditions for ginsenoside analytes and IS. The signal-to-noise ratio (S/N) of the LLOQ sample was at least five times the response compared to the blank samples. Each calibration curve was constructed by plotting the peak area ratio (y) of the analyte to IS against the spiked concentrations (x) of each analyte. Linearity was assessed by weighted (1/x^2) least squares regression analysis. The LLOQ was defined as the lowest concentration on the calibration curve with an S/N ratio of 10, where the precision and accuracy bias were within ±20% by five replicate analyses. The intra- and interday precision and accuracy assessments were performed at four concentrations with five replicates on the same day and three consecutive days, respectively. The acceptance criterion recommended by the guideline of precision and the accuracy was ±15% of the nominal concentration. The recovery of the seven ginsenosides was determined at three QC levels with three replicates by comparing the peak areas of plasma extracts spiked with analytes before extraction with those of the postextraction spiked samples at the same concentration. The matrix effects were investigated by comparing the peak areas of the analytes dissolved in the pretreated blank plasma with the corresponding concentrations prepared in the reconstitution solution with three replicates. The stability of the analytes in human plasma was assessed by analyzing five replicates of plasma samples at low, medium, and high QC levels under four different conditions. Short-term stability was evaluated after the exposure of QC samples to room temperature for 19 h before processing and analysis. The freeze and thaw stability was tested after three repeated cycles of thawing at room temperature and freezing at approximately −70°C. The long-term stability was assessed after storage at approximately −70°C for 50 days. The post-preparative stability was examined after the exposure of processed samples at ambient temperature (stored in an HPLC autosampler) for 34 h.

Like-named read-outs stand apart in the source and are kept apart here.

For `CC(C)=CCCC(C)(OC1OC(CO)C(O)C(O)C1O)C1CCC2(C)C1C(O)CC1C3(C)CCC(O)C(C)(C)C3CCC12C` (stereo not drawn) [CK, compound K], in data set [1], the Cmax is 8.35 ± 1.97 ng/mL and the “half-life of CK compared with that of Rb1” value is “seven times shorter”. In data set [2] (in vivo), the “detection in plasma at the initial time point (0 h) of the second treatment period” value (“detection in plasma” for short) is reported as “did not detect”. Further, in data set [2] (male, human, in vivo), the “AUC(0–t) of CK, times higher than that of F2” value is > 5.03 times and the “mean Tmax in the RG group relative to the BRG group (times lower)” value was “approximately 1.71 times”. Besides, in data set [2] (male, human, in vivo, po), the “AUC(0–t) in the BRG group, times higher than in the RG group” value is listed as > 28.0 times; the “AUC(0–∞)” value is reported as 3.72 ± 7.91 ng·h/mL; the “T 1/2” value is recorded as 1.36 ± 2.61 h; the T max amounted to 4.77 ± 3.61 h. Moreover, in data set [2] (male, human, in vivo, po), the total exposure AUC(0-inf) is 457 ± 259 ng·h/mL, the half-life is 7.72 ± 4.66 h and the Tmax is 8.15 ± 10.2 h. Besides, in data set [3] (1.5 ng/mL), the “Freeze-thaw stability, concentration found” value (from here on “Freeze-thaw stability”) stood at 104.03 ± 7.57%; the “Short-term stability, concentration found” value (from here on “Short-term stability”) is 99.90 ± 4.38%; the “Autosampler stability, concentration found” value (“Autosampler stability” for short) is given as 101.24 ± 4.59%; the “Long-term stability, concentration found” value came out at 103.25 ± 4.03%. In addition, in data set [3] (80 ng/mL), the “Freeze-thaw stability” value worked out at 96.17 ± 2.51%; the “Short-term stability” value amounted to 98.69 ± 2.03%; the “Autosampler stability” value is reported as 99.56 ± 1.44%; the “Long-term stability, concentration found” value amounted to 103.02 ± 5.53%.

Turning to `CC(C)=CCC[C@](C)(O)[C@H]1CC[C@]2(C)[C@@H]1[C@H](O)C[C@@H]1[C@@]3(C)CC[C@H](O[C@@H]4O[C@H](CO)[C@@H](O)[C@H](O)[C@H]4O[C@@H]4O[C@H](CO)[C@@H](O)[C@H](O)[C@H]4O)C(C)(C)[C@@H]3CC[C@]12C` [Rg3, ginsenoside Rg3], the “detection in plasma” value in data set [2] (in vivo) is reported as “did not detect”. In data set [2] (male, human, in vivo, po), the “T 1/2” value is given as 5.70 ± 0.73^∗ h, the T max stood at 4.23 ± 1.54 h, the half-life was 5.58 ± 3.63 h and the Tmax amounted to 3.85 ± 1.28 h. Further, in data set [3] (0.6 ng/mL), the “Freeze-thaw stability” value worked out at 97.73 ± 3.53%; the “Short-term stability” value is given as 102.32 ± 2.68%; the “Autosampler stability” value turned out to be 102.95 ± 5.52%; the “Long-term stability, concentration found” value came out at 104.15 ± 8.68%. Besides, in data set [3] (32 ng/mL), the “Freeze-thaw stability” value amounted to 95.33 ± 2.75%; the “Short-term stability” value was found to be 96.32 ± 1.48%; the “Autosampler stability” value is recorded as 97.25 ± 1.45%; the “Long-term stability, concentration found” value is reported as 99.84 ± 3.12%.

With `CC(C)=CCC[C@](C)(O[C@@H]1O[C@H](CO)[C@@H](O)[C@H](O)[C@H]1O)[C@H]1CC[C@]2(C)[C@@H]1[C@H](O)C[C@@H]1[C@@]3(C)CC[C@H](O[C@@H]4O[C@H](CO)[C@@H](O)[C@H](O)[C@H]4O)C(C)(C)[C@@H]3CC[C@]12C` [Ginsenoside F2, ginsenoside F2], the “detection in plasma” value in data set [2] (in vivo) was “did not detect”. The compound also yielded an area under the curve AUC(0-t) in data set [2] (male, human, in vivo, po, AUC(0–t)) of 74.1 ± 33 ng·h/mL. Further, in data set [2] (male, human, in vivo, po), the area under the curve AUC(0-inf) was 90.7 ± 43 ng·h/mL, the half-life is 9.77 ± 7.71 h and the Tmax turned out to be 6.62 ± 1.71 h. In data set [2] (male, human, in vivo, po, C max), this compound came in with a Cmax of 5.83 ± 2.35 ng/mL. Besides, in data set [3] (1.5 ng/mL), the “Freeze-thaw stability” value is reported as 98.29 ± 4.06%; the “Short-term stability” value worked out at 99.21 ± 7.70%; the “Autosampler stability” value was determined as 99.02 ± 8.01%; the “Long-term stability, concentration found” value is given as 101.83 ± 3.76%. Also, in data set [3] (80 ng/mL), the “Freeze-thaw stability” value is recorded as 95.95 ± 1.10%; the “Short-term stability” value is 96.53 ± 4.04%; the “Autosampler stability” value was 96.29 ± 0.99%; the “Long-term stability, concentration found” value was determined as 99.02 ± 2.04%.

`CC(C)=CCC[C@](C)(O[C@@H]1O[C@H](CO)[C@@H](O)[C@H](O)[C@H]1O)[C@H]1CC[C@]2(C)[C@@H]1[C@H](O)C[C@@H]1[C@@]3(C)CC[C@H](O)C(C)(C)[C@@H]3[C@@H](O[C@@H]3O[C@H](CO)[C@@H](O)[C@H](O)[C@H]3O)C[C@]12C` [Rg1, ginsenoside Rg1]: in data set [2] (after oral RG or BRG), the “detection in the plasma samples” value is given as “not detected”.

Broadly, the Cmax is the maximum level reached in the sampled fluid or tissue. For orientation: AUC(0-inf) means the area under the concentration-time curve extrapolated to infinity. High values mean high exposure, low ones low exposure. The term half-life denotes the time needed for the level to fall by half in the phase considered. Low readings indicate rapid decline, high ones slow decline. As usually defined, the Tmax is the time at which the peak concentration occurs. For orientation: AUC(0-t) means the area under the concentration-time curve up to a stated or last time point. A high value points to high exposure.
